The test system of series [1] is lung epithelial A549 cell line. As to the kind of experiment: Peptide cytotoxicity, Trypan Blue exclusion assay. It counts as cell-based, human. As to the method:
(§1) Cytotoxicity studies were performed using three mammalian cell lines which included mouse macrophage J774.16 cell line, human lung epithelial A549 cell line, and sheep red blood cells (sRBCs) in Trypticase soy agar (TSA). Mouse macrophage J774.16 cell line (maintained in antibiotic-free Dulbecco's modified Eagle's medium containing 20% fetal bovine serum, 5% NCTC 109, 1% nonessential amino acids and 1% glutamine) or human lung epithelial A549 cell line (maintained in antibiotic-free Ham's F12 medium supplemented with 10% fetal bovine serum) was seeded at a density of approximately 1×10^5 cells per ml in Lab-tek Permanox eight-chamber microscopy slides (Nunc, Inc., Naperville, Ill.) and incubated for 3 (J774.16) or 5 (A549) days before use. After cell differentiation to a confluence of 70 to 80%, the culture media was replaced with fresh media containing the different AMPS at 64 μg/ml or at toxic dose (320 μg/ml) or controls (media only for negative control or 50 μM NaN3 for positive control). Similarly, AMPS or 1% Triton 100-X as positive control or media only (negative control) was each added to separate wells and allowed to be absorbed into agar at room temperature. All experiments were incubated for 24 hr at 37° C., 5% CO2. All experiments were done in duplicates. Cytotoxicity for J774.16 or A549 cells was monitored using Trypan Blue exclusion assay and the ratio of dead to viable cells was recorded. For sRBCs, the presence of cell lysis after 24 hr of incubation at 37° C. following treatment indicated cytotoxicity.

The next series concerns macrophage J774.16 cells. As to the kind of experiment: Peptide cytotoxicity, Trypan Blue exclusion assay. The note with it: for cell death: 170 μM peptide, negative control 10%. It counts as cell-based, mouse. The protocol: as §1
The subject of series [2] is M. tuberculosis strain MC26230.
Where [3] appears, read: 170 μM peptide concentration, compared with the negative control.

The results in this text go back to patent US10336790B2 (priority 2014, dated 2019).

Ends that are not written are not given here.

Usually MIC stands for the lowest concentration that inhibits growth of the organism. Read a high MIC as weaker potency. Consider “ILSLRWWRKWWKK-NH2 [Peptide B2, ILSLRWWRKWWKK]”, for which the “cytotoxicity” value in series [1] (setting [3]) is “Slight cytotoxicity”. The same substance displayed an MIC against M. tuberculosis MC26020 of 32 mg/L. In addition, the cell death in the series with macrophage J774.16 cells (24 hr) is given as 20%.

Substance “IRKLKSWKWLRWL-NH2 [Peptide B4, IRKLKSWKWLRWL]” yielded an MIC with M. tuberculosis MC26020 of 32 mg/L.

Consider “ILSLRWRWKWWKK-NH2 [Peptide B1, ILSLRWRWKWWKK]”, for which the MIC in the series on M. tuberculosis MC26020 is 32 mg/L.

Consider “ILSLRWRWWKWKK-NH2 [Peptide B3, ILSLRWRWWKWKK]”, for which the MIC in series [2] was found to be 64 mg/L; with M. tuberculosis MC26020, 8 mg/L. Also, the “cytotoxicity” value in series [1] (setting [3]) was “Slight cytotoxicity”; in series [1] (milder than on J774.16 cells, concentration not restated (320 μg/mL in preceding sentence)), “some degree of cytotoxicity”; in the series on macrophage J774.16 cells (320 μg/mL, 24 hr), “moderate cytotoxicity”. For the same substance, in the series with macrophage J774.16 cells, the “cytotoxic concentration (320 μg/mL) relative to MIC against mycobacteria and streptococci” value is on record as “at least five times the MIC”. The substance further registered a cell death in the series with macrophage J774.16 cells (24 hr) of 40%.
